Several values for one entry are separate records, joined by “and”; a condition that tells them apart may be missing. Equal values may be shown once. Entries after “also recorded” stand apart in the source; their conditions may differ. Positions of bridges follow the written chain, without caps; N, C: chain ends. Residues, ends and D or L forms follow the SMILES beside them.
Tests used:
[1] = test system: CFA-injected mice (C57 Bl6); details: mouse, in vivo
[2] = test system: patients; details: in vivo; cited from earlier work
[3] = test system: N-type calcium channels with auxiliary subunits; details: cited from earlier work
[4] = test system: L-type; assay type: cell-based, mouse
[5] = test system: P/Q-type channels (Cav2.1); assay type: cell-based, mouse

C[C@@H]1NC(=O)CNC(=O)[C@H](CCCCN)NC(=O)CNC(=O)[C@H](CCCCN)NC(=O)[C@@H](N)CSSC[C@@H]2NC(=O)[C@@H]3CSSC[C@@H](C(N)=O)NC(=O)[C@H](CCCNC(=N)N)NC(=O)CNC(=O)[C@H](CO)NC(=O)[C@H](CCCNC(=N)N)NC(=O)[C@H](CSSC[C@H](NC(=O)[C@H](CO)NC1=O)C(=O)N[C@@H](CCCNC(=N)N)C(=O)N[C@@H](CCCNC(=N)N)C(=O)N[C@@H]([C@@H](C)O)C(=O)N[C@@H](CO)C(=O)N[C@@H](Cc1ccc(O)cc1)C(=O)N[C@@H](CC(=O)O)C(=O)N3)NC(=O)[C@H](CO)NC(=O)CNC(=O)[C@H]([C@@H](C)O)NC2=O [CVIE]
reversal of CFA-induced incapacitance (impaired weight bearing) [1]: partially reversed impaired weight bearing; also recorded: most effective at reversing mechanical alldoynia; also recorded: significant reversal of incapacitance; also recorded: most effective at reversal of pain; also recorded: reverse signs of inflammatory pain

CSCC[C@@H]1NC(=O)[C@H](CC(C)C)NC(=O)[C@H](CCCCN)NC(=O)[C@H](CO)NC(=O)[C@@H]2CSSC[C@@H]3NC(=O)[C@H](CO)NC(=O)CNC(=O)[C@H](CO)NC(=O)[C@H](CSSC[C@H](N)C(=O)N[C@@H](CCCCN)C(=O)N[C@@H](CO)C(=O)N[C@@H](CCCCN)C(=O)NCC(=O)N[C@@H](C)C(=O)N[C@@H](CCCCN)C(=O)N2)NC(=O)[C@H](CSSC[C@@H](C(N)=O)NC(=O)[C@H](CCCNC(=N)N)NC(=O)CNC(=O)[C@H](C(C)C)NC(=O)[C@H]([C@@H](C)O)NC(=O)CNC(=O)[C@H](CO)NC3=O)NC(=O)[C@H](CC(=O)O)NC(=O)[C@H](Cc2ccc(O)cc2)NC1=O [CVID] (H-CKSKGAKCSKLMYDCCSGSCSGTVGRC-NH2; disulfide 1-16, 8-20, 15-27)
reversal of CFA-induced incapacitance (impaired weight bearing) [1]: partially reversed impaired weight bearing; also recorded: most effective at reversing mechanical alldoynia; also recorded: most effective at reversal of pain; also recorded: reverse signs of inflammatory pain | side-effect profile of irreversible ω-conotoxins [2]: high side-effect profile | affinity for N-type calcium channels in presence of α2δ subunits [3]: significantly reduces the affinity | recovery from block in presence of α2δ subunits [3]: decreasing recovery from CVID block

CC(C)C[C@@H]1NC(=O)[C@H](CCCNC(=N)N)NC(=O)[C@@H]2CSSC[C@@H]3NC(=O)[C@H](CO)NC(=O)[C@H](C)NC(=O)CNC(=O)[C@H](CCCCN)NC(=O)CNC(=O)[C@H](CCCCN)NC(=O)[C@@H](N)CSSC[C@H](NC(=O)[C@H](CSSC[C@@H](C(N)=O)NC(=O)[C@H](CCCNC(=N)N)NC(=O)CNC1=O)NC(=O)[C@H](CC(=O)O)NC(=O)[C@H](Cc1ccc(O)cc1)NC(=O)[C@H](CO)NC(=O)[C@H]([C@@H](C)O)NC(=O)[C@H](CCCNC(=N)N)NC(=O)[C@H](CCCNC(=N)N)NC3=O)C(=O)N[C@@H]([C@@H](C)O)C(=O)NCC(=O)N[C@@H](CO)C(=O)N2 [CVIF] (H-CKGKGASCRRTSYDCCTGSCRLGRC-NH2; disulfide 1-16, 8-20, 15-25)
reversal of CFA-induced incapacitance (impaired weight bearing) [1]: did not produce significant reversal of incapacitance

COCCOC(=O)C1=C(C)NC(C)=C(C(=O)OC(C)C)C1c1cccc([N+](=O)[O-])c1 (centres unmarked) [nimodipine]
inhibition of total ICa (L-type contribution) [4]: 5% and 4%

ω-agatoxin IVA
inhibition of total ICa (P/Q-type contribution) [5]: approximately 30%

Reference: publication PMC3853768 (Molecular Pain, 2013)
